Tests used:
[1] = refractive index (other wavelength) (dimensionless); settings: 101.32 kPa, Liquid, Wavelength=632.8 nm, Standard Abbe refractometry
[2] = refractive index (other wavelength) (dimensionless); xn = mol fraction of the nth substance listed; settings: 293.6 K, 101.32 kPa, Liquid, Wavelength=632.8 nm

N#Cc1ccccc1 [benzonitrile]
[1]
Settings | refractive index
283.93 K | 1.5294
285.77 K | 1.5285
287.73 K | 1.5276
289.74 K | 1.5266
291.66 K | 1.5256
293.65 K | 1.5247

N#Cc1ccccc1 [benzonitrile] + CCCCCCCCCCCC
[2]
Settings | refractive index
x1 = 0.0994 | 1.4247
x1 = 0.195 | 1.4302
x1 = 0.2945 | 1.436
x1 = 0.3954 | 1.4434
x1 = 0.4923 | 1.4507
x1 = 0.5859 | 1.4608
x1 = 0.6782 | 1.4711
x1 = 0.768 | 1.4832
x1 = 0.8871 | 1.5022

CCCCCCCCCCCC [dodecane]
[1]
Settings | refractive index
282.19 K | 1.4249
284.24 K | 1.424
286.06 K | 1.4233
288.08 K | 1.4225
289.91 K | 1.4217
291.91 K | 1.4207
293.94 K | 1.4199

From the NIST ThermoML archive (doi:10.1016/j.jct.2007.09.010)
